Type in all cases: functional, cell-based
Assay [1] can be described thus: Osteoblastic proliferative activity in […] MC3T3-E1 cells at 10^-2 mM by MTT assay. On the technique in general: Formazan colour is commonly taken as a measure of viable cells.
A short description of assay [2]: Osteoblastic proliferative activity in […] MC3T3-E1 cells at 10^-6 mM by MTT assay.
A short description of assay [3]: Osteoblastic proliferative activity in […] MC3T3-E1 cells at 10^-3 mM by MTT assay.
Assay [4] in a line: Osteoblastic proliferative activity in rat MC3T3-E1 cells at 10^-4 mM by MTT assay.
The nature of assay [5]: Osteoblastic proliferative activity in […] MC3T3-E1 cells at 10^-5 mM by MTT assay.

Where a SMILES comes first, the peptide text is derived from it.

Results on three compounds are retold here after ChEMBL document CHEMBL1955866, “New cyclic peptides with osteoblastic proliferative activity from Dianthus superbus” (Bioorg Med Chem Lett, 2012).

In assay [1], `[F-].[Na+]` came in with an Activity of 46.2%.

Turning to `CC(C)C[C@@H]1NC(=O)[C@H]([C@@H](C)O)NC(=O)[C@H](CC(C)C)NC(=O)[C@@H]2CCCN2C(=O)CNC(=O)[C@H](Cc2ccccc2)NC1=O` (cyclo(FGPLTL)), the Activity in assay [2] came to 25.4%; in assay [1] it was 13.7%; in assay [3], 3.9%; in assay [4], 21.7%; in assay [5], 38.2%.

`CC[C@H](C)[C@@H]1NC(=O)[C@H]([C@@H](C)O)NC(=O)[C@H](C(C)C)NC(=O)[C@@H]2CCCN2C(=O)CNC(=O)[C@H](Cc2ccccc2)NC1=O` (cyclo(FGPVTI)): the Activity in assay [2] was determined as 17.2%; in assay [1], 22.5%; in assay [3] it was 17%; in assay [4], 26.3%; in assay [5], 33.9%.
